In patent US12227539B2, “Mogroside compounds and uses thereof” (Firmenich SA, priority 2019, dated 2025):

Columns and labels:
[1] = Tasting of a sample of the purified compound (taste perceived, sweetness relative to sucrose); settings: for sweetness relative to sucrose: approximate
Text: The sweetness intensity perceived was weaker than the sweetness intensity perceived with mogroside V. However, the perception of licorice and lingering profile of isomogroside IVe was weaker than that of mogroside V (see table on following page).

[2] = Sensory profile scores (Sweet, Licorice, Lingering) compared with mogroside V
[3] = tasted at 250 ppm in a water base
[4] = tasted at a concentration of 250 ppm

Compound | sweetness relative to sucrose ([1]; tasted at 500 ppm in a water base) | taste perceived ([1]; tasted at a concentration of 500 ppm in a water base) | sensory profile compared with mogroside V ([2]; 500 ppm in a water base) | Licorice ([2]; Dosage 500 ppm) | Lingering ([2]; Dosage 500 ppm) | Sweet ([2]; Dosage 500 ppm) | sweetness relative to sucrose [1, 3] | taste perceived [1, 4] | sensory profile compared with mogroside V ([2]; 250 ppm in a water base) | Licorice ([2]; Dosage 250 ppm) | Lingering ([2]; Dosage 250 ppm) | Sweet ([2]; Dosage 250 ppm) | sweetness intensity perceived compared with mogroside V ([2]; 250 ppm in a water base)
C[C@H](CC[C@@H](O[C@@H]1O[C@H](CO)[C@@H](O)[C@H](O)[C@H]1O[C@@H]1O[C@H](CO)[C@@H](O)[C@H](O)[C@H]1O)C(C)(C)O)[C@H]1CC[C@@]2(C)[C@@H]3CC=C4[C@@H](CC[C@H](O[C@@H]5O[C@H](CO[C@@H]6O[C@H](CO)[C@@H](O)[C@H](O)[C@H]6O)[C@@H](O)[C@H](O)[C@H]5O)C4(C)C)[C@]3(C)CC[C@]12C [Compound 15a, (1S,4S,9beta,24R)-1-{[6-O-(beta-D-glucopyranosyl)-beta-D-glucopyranosyl]oxy}-25-hydroxy-9,10,14-trimethyl-4,9-cyclo-9,10-secocholest-5-en-24-yl 2-O-beta-D-glucopyranosyl-beta-D-glucopyranoside] | 150-300 times sweeter than sucrose | strong sweet taste | similar | 6.8 | 6.3 | 7.0 | – | – | – | – | – | – | –
C[C@H](CC[C@@H](O[C@@H]1O[C@H](CO[C@@H]2O[C@H](CO[C@@H]3O[C@H](CO)[C@@H](O)[C@H](O)[C@H]3O)[C@@H](O)[C@H](O)[C@H]2O)[C@@H](O)[C@H](O)[C@H]1O[C@@H]1O[C@H](CO)[C@@H](O)[C@H](O)[C@H]1O)C(C)(C)O)[C@H]1CC[C@@]2(C)[C@@H]3CC=C4[C@@H](CC[C@H](O[C@@H]5O[C@H](CO[C@@H]6O[C@H](CO)[C@@H](O)[C@H](O)[C@H]6O)[C@@H](O)[C@H](O)[C@H]5O)C4(C)C)[C@]3(C)[C@H](O)C[C@]12C [Compound 13a, (1S,4R,9beta,11alpha,24R)-1-{[6-O-(beta-D-glucopyranosyl)-beta-D-glucopyranosyl]oxy}-11,25-dihydroxy-9,10,14-trimethyl-4,9-cyclo-9,10-secocholest-5-en-24-yl beta-D-glucopyranosyl-(1→2)-[beta-D-glucopyranosyl-(1→6)-beta-D-glucopyranosyl-(1→6)]-beta-D-glucopyranoside] | – | – | – | – | – | – | 100-150 times sweeter than sucrose | moderate sweet taste | similar | 4.4 | 4.2 | 4.6 | –
C[C@H](CC[C@@H](O[C@@H]1O[C@H](CO[C@@H]2O[C@H](CO)[C@@H](O)[C@H](O)[C@H]2O)[C@@H](O)[C@H](O)[C@H]1O[C@@H]1O[C@H](CO)[C@@H](O[C@@H]2O[C@H](CO)[C@@H](O)[C@H](O)[C@H]2O)[C@H](O)[C@H]1O)C(C)(C)O)[C@H]1CC[C@@]2(C)[C@@H]3CC=C4[C@@H](CC[C@H](O[C@@H]5O[C@H](CO[C@@H]6O[C@H](CO)[C@@H](O)[C@H](O)[C@H]6O)[C@@H](O)[C@H](O)[C@H]5O)C4(C)C)[C@]3(C)[C@H](O)C[C@]12C [Compound 12a, (1S,4R,9beta,11alpha,24R)-1-{[6-O-(beta-D-glucopyranosyl)-beta-D-glucopyranosyl]oxy}-11,25-dihydroxy-9,10,14-trimethyl-4,9-cyclo-9,10-secocholest-5-en-24-yl beta-D-glucopyranosyl-(1→6)-[beta-D-glucopyranosyl-(1→4)-beta-D-glucopyranosyl-(1→2)]-beta-D-glucopyranoside] | – | – | – | – | – | – | 50-100 times sweeter than sucrose | moderate sweet taste | – | 3.1 | 3.0 | 3.4 | weaker
